Measured values as given in patent US20200397894A1, “COMPOSITIONS AND METHODS FOR TREATING CANCER” (University of Virginia Patent Foundation, priority 2016, published 2020).

What was measured:
HNSCC cells = assay: Colony formation and CYQUANT cell viability assays; assay type: cell-based; settings: Homo sapiens
Description: HNSCC cells were transfected with si-RNA (48 hours prior to first count) or treated with pevonedistat (24 hours prior to first count). 8×10^5 cells were seeded in 60 mm plates and cell proliferation was determined by staining with trypan blue and counting by COUNTESS™ Automated Cell Counter (INVITROGEN™, Carlsbad, Calif., United States of America). Depending on the cell growth rate, cell counts were recorded either every 24 or 48 hours, and growth curves were established.
The effect of pevonedistat treatment or transient silencing of CDT2, geminin, or EMI1 on cell proliferation or on radiation sensitivity was tested using clonogenic survival assays. Cells were transfected with the appropriate si-RNA 48 hours prior to seeding. Cells were then counted using COUNTESS™ Automated Cell Counter (INVITROGEN™, Carlsbad, Calif., United States of America) and were seeded at 15,000 cells/plate in 60 mm dishes. Cells were irradiated 24 hours after seeding with various doses and were cultured for 7-10 days. […] QUANTITY ONE® software (BioRad Laboratories, Inc., Hercules, Calif., United States of America) was used to quantify the number of colonies and survival curves were established based on the linear quadratic model, using the formula S=e^−αD-βD2; where S represents the surviving fraction and D the dose of irradiation. […]

FaDu cells = assay: Rereplication by propidium iodide staining and FACS (HNSCC); assay type: cell-based, human
Description: The effect of pevonedistat treatment or CDT2, geminin, or EMI1 knockdown on the cell cycle (and induction of DNA rereplication) was assessed by flow cytometry with propidium iodide (PI) staining. Cells were harvested at 72 or 96 hours post-treatment with pevonedistat or post-transfection, respectively. Cells were collected, washed with PBS, and resuspended in ethanol (75%). Cells were subsequently treated with 20 μg of DNase-free RNase and stained with PI following the manufacturer's protocol. FACSCAN™ (Becton, Dickinson and Company, Franklin Lakes, N.J., United States of America) was used to analyze the samples and G0-G1, S, and G2-M fractions were segmented. Subsequent analysis using FLOWJO® (FLOWJO, LLC, Ashland, Oreg., United States of America) and ModFit (Verity Software House, Topsham, Me., United States of America) software was used to determine apoptotic and re-replicating fractions. Where indicated, Cal27 and FaDu cells were treated with pevonedistat for 48 hours and pulsed with BrdU (10 nM) for 1 hour in the dark prior to harvesting. Cells were washed with PBS and staining solution before fixation and permeabilization steps according to the manufacturer's protocol. Cells were subsequently stained with anti-BrdU antibody solution for 20 minutes at room temperature, washed, and stained with 7-AAD for 30 minutes at 4° C. Cells were resuspended in 1 ml of staining buffer and stored at 4° C. overnight before analysis. Sampled were analyzed on a FACSCAN™ (Becton, Dickinson and Company, Franklin Lakes, N.J., United States of America), and different fractions of BrdU positive cells were determined using FLOWJO® (FLOWJO, LLC, Ashland, Oreg., United States of America) and ModFit (Verity Software House, Topsham, Me., United States of America) software.

VMM1 melanoma cells = assay: Cell proliferation/viability MTT assay; assay type: cell-based; settings: Homo sapiens, 96 hours
Description: (§1) Proliferation and viability of cultured cells was measured by CELLTITER96® Non-radioactive Cell Proliferation Assay (Promega Corporation; Madison, Wis., United States of America). Briefly, various wild type and mutant BRAF melanoma cells were seeded in 96 well plates and treated with pevonedistat, vemurafenib, or the combination pevonedistat and vemurafenib at various concentrations. Control cells were treated with DMSO. 96 hours following treatment, cells were stained with the dye solution according to the manufacturer's protocol. Absorbance was recorded at 570 nm and growth curves were established. To test the effect of transient exposure of melanoma cells to pevonedistat on rereplication and growth inhibition, washout experiments were conducted where melanoma cells or PIG3V melanocytes were treated with […] pevonedistat for different times (4, 8, 12, and 24 hours) before the drug was washed out by washing the cells twice with PBS, and adding drug-free fresh growth media to cells. Cells were counted every 24 hours using a COUNTESS™ Automated Cell Counter (INVITROGEN™, Carlsbad, Calif., United States of America), and harvested at the indicated times for PI staining and FACS analysis (cell cycle profile) or for immunoblotting.

VMM39 cells = assay: Cell proliferation/viability MTT assay; assay type: cell-based; settings: Homo sapiens, 96 hours
Description: as §1

DM13 cells = assay: Cell proliferation/viability MTT assay; assay type: cell-based; settings: Homo sapiens, 96 hours
Description: as §1

SMILES: NS(=O)(=O)OCC1CC(n2ccc3c(NC4CCc5ccccc54)ncnc32)CC1O [pevonedistat, ((1S,2S,4R)-4-(4-((1S)-2,3-Dihydro-H-inden-1-ylamino)-7H-pyrrolo(2,3-d)pyrimidin-7-yl)-2-hydroxycyclopentyl)methyl sulphamate]
- IC50 (HNSCC cells): ~50 nM
- cells undergoing rereplication (FaDu cells; 40 nM pevonedistat 48 hours plus 2 Gy at the 24 hour time point): 42.2%
- cells undergoing rereplication (FaDu cells; 40 nM pevonedistat for 48 hours): 21.6%
- cells exhibiting >4N DNA content (FaDu cells; 100 nM pevonedistat, PI staining): 60.4%
- IC50 (VMM1 melanoma cells): 330 nM
- IC50 (VMM39 cells): 35 nM
- IC50 (DM13 cells): 40 nM
